Reference: patent publication US11014929B2, “Pyrazolopyrimidine compounds and uses thereof” (Incyte Corporation, priority 2016, dated 2021)

Biological target: HPK1 (Homo sapiens (Human), UniProt Q92918)
Assay: HPK1 Kinase Binding Assay
Settings: LanthaScreen tracer 222 binding, active HPK1, one hour incubation at 25° C.
Protocol: A stock solution of 1 mM test compound was prepared in DMSO. The compound plate was prepared by 3-fold and 11-point serial dilutions. 0.1 μL of the compound in DMSO was transferred from the compound plate to the white 384 well polystyrene plates. The assay buffer contained 50 mM HEPES, pH 7.5, 0.01% Tween-20, 5 mM MgCl2, 0.01% BSA, and 5 mM DTT. 5 μl of 4 nM active HPK1 (SignalChem M23-11G) prepared in the buffer was added to the plate. The enzyme concentration given was based on the given stock concentration reported by the vender. 5 μl of 18 nM tracer 222 (ThermoFisher PV6121) and 4 nM LanthaScreen Eu-Anti GST antibody (ThermoFisher PV5595) were added. After one hour incubation at 25° C., the plates were read on a PHERAstar FS plate reader (BMG Labtech). Ki values were determined.

Chain of HPK1 (Q92918 1-346): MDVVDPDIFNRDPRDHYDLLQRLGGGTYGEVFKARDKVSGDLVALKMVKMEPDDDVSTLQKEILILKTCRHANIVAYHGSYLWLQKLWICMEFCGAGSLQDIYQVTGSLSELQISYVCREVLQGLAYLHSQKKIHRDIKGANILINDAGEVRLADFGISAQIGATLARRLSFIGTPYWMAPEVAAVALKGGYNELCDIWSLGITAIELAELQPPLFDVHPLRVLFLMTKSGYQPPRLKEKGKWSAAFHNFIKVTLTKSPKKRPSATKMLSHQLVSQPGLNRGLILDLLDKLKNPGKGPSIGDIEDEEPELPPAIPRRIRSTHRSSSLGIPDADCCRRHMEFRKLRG

A Ki of no more than 100 nM was found for `Cc1cc(C2CCCN2)cc(F)c1-c1ncc2[nH]nc(-c3ccc(N4CCN(C)CC4)cc3)c2n1` (stereo not shown) [Example 80, 5-(2-Fluoro-6-methyl-4-(pyrrolidin-2-yl)phenyl)-3-(4-(4-methylpiperazin-1-yl)phenyl)-1H-pyrazolo[4,3-d]pyrimidine] in this work.
A Ki of no more than 100 nM was found for `COc1cccc(F)c1-c1ncc2[nH]nc(-c3cc(C)n[nH]3)c2n1` [Example 88, 5-(2-Fluoro-6-methoxyphenyl)-3-(3-methyl-1H-pyrazol-5-yl)-1H-pyrazolo[4,3-d]pyrimidine] in this work.
A Ki of no more than 100 nM was found for `CN1CCN(c2ncc(-c3n[nH]c4cnc(-c5c(F)cc6c(c5F)CNCC6)nc34)cn2)CC1` [Example 92, 6,8-Difluoro-7-(3-(2-(4-methylpiperazin-1-yl)pyrimidin-5-yl)-1H-pyrazolo[4,3-d]pyrimidin-5-yl)-1,2,3,4-tetrahydroisoquinoline] in this work.
A Ki of no more than 100 nM was found for `COc1cccc(F)c1-c1ncc2[nH]nc(-c3ccc(N4CCOCC4)cc3)c2n1` [Example 26, 4-(4-(5-(2-Fluoro-6-methoxyphenyl)-1H-pyrazolo[4,3-d]pyrimidin-3-yl)phenyl)morpholine] in this work.
A Ki of no more than 100 nM was found for `CN1CCN(c2ccc(-c3n[nH]c4cnc(-c5ccc6c(c5)C(=O)NC6)nc34)cc2)CC1` [Example 7, 6-(3-(4-(4-Methylpiperazin-1-yl)phenyl)-1H-pyrazolo[4,3-d]pyrimidin-5-yl)isoindolin-1-one] in this work.
A Ki of no more than 100 nM was found for `CNCc1cc(F)c(-c2ncc3[nH]nc(-c4ccc(C5CCNCC5)cc4)c3n2)c(F)c1` [Example 65, 1-(3,5-Difluoro-4-(3-(4-(piperidin-4-yl)phenyl)-1H-pyrazolo[4,3-d]pyrimidin-5-yl)phenyl)-N-methylmethanamine] in this work.
A Ki of no more than 100 nM was found for `CN1CCN(c2ccc(-c3n[nH]c4cnc(-c5cccc6c5CCNC6)nc34)cc2)CC1` [Example 10, 5-(3-(4-(4-Methylpiperazin-1-yl)phenyl)-1H-pyrazolo[4,3-d]pyrimidin-5-yl)-1,2,3,4-tetrahydroisoquinoline] in this work.
A Ki of no more than 100 nM was found for `COc1ccc(-c2ncc3[nH]nc(-c4ccc(N5CCN(C)CC5)cc4)c3n2)c2c1CNCC2` [Example 100, 8-Methoxy-5-(3-(4-(4-methylpiperazin-1-yl)phenyl)-1H-pyrazolo[4,3-d]pyrimidin-5-yl)-1,2,3,4-tetrahydroisoquinoline] in this work.
A Ki of no more than 100 nM was found for `CNCc1cc(F)c(-c2ncc3[nH]nc(-c4ccc(N5CCCC(C)(CO)C5)nc4)c3n2)c(F)c1` (stereo not shown) [Example 71, (1-(5-(5-(2,6-Difluoro-4-((methylamino)methyl)phenyl)-1H-pyrazolo[4,3-d]pyrimidin-3-yl)pyridin-2-yl)-3-methylpiperidin-3-yl)methanol] in this work.
A Ki of no more than 100 nM was found for `CCN1CCN(c2ccc(-c3n[nH]c4cnc(-c5c(F)cc(CNC)cc5F)nc34)cc2)CC1` [Example 67, 1-(4-(3-(4-(4-Ethylpiperazin-1-yl)phenyl)-1H-pyrazolo[4,3-d]pyrimidin-5-yl)-3,5-difluorophenyl)-N-methylmethanamine] in this work.
A Ki of no more than 100 nM was found for `Cc1c2c(cc(F)c1-c1ncc3[nH]nc(-c4ccc(N5CCN(C)CC5)cc4)c3n1)CCNC2` [Example 111, 6-Fluoro-8-methyl-7-(3-(4-(4-methylpiperazin-1-yl)phenyl)-1H-pyrazolo[4,3-d]pyrimidin-5-yl)-1,2,3,4-tetrahydroisoquinoline] in this work.
A Ki of no more than 100 nM was found for `CNC1CCc2cc(F)c(-c3ncc4[nH]nc(-c5ccc(N6CCOCC6)nc5)c4n3)c(F)c2C1` (stereo not shown) [Example 115, 6,8-Difluoro-N-methyl-7-(3-(6-morpholinopyridin-3-yl)-1H-pyrazolo[4,3-d]pyrimidin-5-yl)-1,2,3,4-tetrahydronaphthalen-2-amine] in this work.
A Ki of no more than 100 nM was found for `Cc1cccc(F)c1-c1ncc2[nH]nc(-c3ccc(N4CCNCC4)cc3)c2n1` [Example 59, 5-(2-Fluoro-6-methylphenyl)-3-(4-(piperazin-1-yl)phenyl)-1H-pyrazolo[4,3-d]pyrimidine] in this work.
A Ki of no more than 100 nM was found for `COc1cccc(F)c1-c1ncc2[nH]nc(-c3ccc(C#N)cc3)c2n1` [Example 17, 4-(5-(2-Fluoro-6-methoxyphenyl)-1H-pyrazolo[4,3-d]pyrimidin-3-yl)benzonitrile] in this work.
A Ki of 100 to 500 nM was found for `COc1cccc(F)c1-c1ncc2[nH]nc(-c3ccc(C4(N5CCOCC5)CC4)cc3)c2n1` [Example 33, 4-(1-(4-(5-(2-Fluoro-6-methoxyphenyl)-1H-pyrazolo[4,3-d]pyrimidin-3-yl)phenyl)cyclopropyl)morpholine] in this work.
A Ki of 100 to 500 nM was found for `COc1cccc(F)c1-c1ncc2[nH]nc(-c3ccc(C(=O)N(C)C)cc3)c2n1` [Example 22, 4-(5-(2-Fluoro-6-methoxyphenyl)-1H-pyrazolo[4,3-d]pyrimidin-3-yl)-N,N-dimethylbenzamide] in this work.
A Ki of no more than 100 nM was found for `COc1cccc(F)c1-c1ncc2[nH]nc(-c3ccc(CC#N)cc3)c2n1` [Example 34, 2-(4-(5-(2-Fluoro-6-methoxyphenyl)-1H-pyrazolo[4,3-d]pyrimidin-3-yl)phenyl)acetonitrile] in this work.
A Ki of 100 to 500 nM was found for `COc1cccc(F)c1-c1ncc2[nH]nc(-c3cncnc3)c2n1` [Example 16, 5-(2-Fluoro-6-methoxyphenyl)-3-(pyrimidin-5-yl)-1H-pyrazolo[4,3-d]pyrimidine] in this work.
A Ki of no more than 100 nM was found for `COc1cccc(F)c1-c1ncc2[nH]nc(-c3cnn(-c4ccccc4)c3)c2n1` [Example 48, 5-(2-Fluoro-6-methoxyphenyl)-3-(1-phenyl-1H-pyrazol-4-yl)-1H-pyrazolo[4,3-d]pyrimidine] in this work.
A Ki of no more than 100 nM was found for `CNCc1cc(F)c(-c2ncc3[nH]nc(-c4ccc(N5CCC(C)(O)CC5)nc4)c3n2)c(F)c1` [Example 122, 1-(5-(5-(2,6-Difluoro-4-((methylamino)methyl)phenyl)-1H-pyrazolo[4,3-d]pyrimidin-3-yl)pyridin-2-yl)-4-methylpiperidin-4-ol] in this work.
A Ki of no more than 100 nM was found for `Cc1cccc(F)c1-c1ncc2[nH]nc(-c3ccc(N4CCCC(O)C4)cc3)c2n1` (stereo not shown) [Example 57, 1-(4-(5-(2-Fluoro-6-methylphenyl)-1H-pyrazolo[4,3-d]pyrimidin-3-yl)phenyl)piperidin-3-ol] in this work.
A Ki of no more than 100 nM was found for `COc1cccc(F)c1-c1ncc2[nH]nc(-c3ccnc(N4CCN(C)CC4)c3)c2n1` [Example 51, 5-(2-Fluoro-6-methoxyphenyl)-3-(2-(4-methylpiperazin-1-yl)pyridin-4-yl)-1H-pyrazolo[4,3-d]pyrimidine] in this work.
A Ki of no more than 100 nM was found for `COc1cccc(F)c1-c1ncc2[nH]nc(-c3cccc(N(C)C)c3)c2n1` [Example 30, 3-(5-(2-Fluoro-6-methoxyphenyl)-1H-pyrazolo[4,3-d]pyrimidin-3-yl)-N,N-dimethylaniline] in this work.
A Ki of no more than 100 nM was found for `COc1cccc(F)c1-c1ncc2[nH]nc(-c3ccncc3)c2n1` [Example 15, 5-(2-Fluoro-6-methoxyphenyl)-3-(pyridin-4-yl)-1H-pyrazolo[4,3-d]pyrimidine] in this work.
A Ki of no more than 100 nM was found for `CN1CCN(c2ccc(-c3n[nH]c4cnc(-c5c(F)ccc6c5CCNC6)nc34)cc2)CC1` [Example 56, 6-Fluoro-5-(3-(4-(4-methylpiperazin-1-yl)phenyl)-1H-pyrazolo[4,3-d]pyrimidin-5-yl)-1,2,3,4-tetrahydroisoquinoline] in this work.
A Ki of no more than 100 nM was found for `CN1CCN(Cc2ccc(-c3n[nH]c4cnc(-c5c(F)ccc6c5CCNC6)nc34)cc2)CC1` [Example 106, 6-Fluoro-5-(3-(4-((4-methylpiperazin-1-yl)methyl)phenyl)-1H-pyrazolo[4,3-d]pyrimidin-5-yl)-1,2,3,4-tetrahydroisoquinoline] in this work.
A Ki of no more than 100 nM was found for `Cc1cc2c(c(F)c1-c1ncc3[nH]nc(-c4ccc(N5CCN(C)CC5)nc4)c3n1)CNCC2` [Example 112, 8-Fluoro-6-methyl-7-(3-(6-(4-methylpiperazin-1-yl)pyridin-3-yl)-1H-pyrazolo[4,3-d]pyrimidin-5-yl)-1,2,3,4-tetrahydroisoquinoline] in this work.
A Ki of no more than 100 nM was found for `CNCc1cc(F)c(-c2ncc3[nH]nc(-c4cnc(N5CCOCC5)c(C#N)c4)c3n2)c(F)c1` [Example 68, 5-(5-(2,6-Difluoro-4-((methylamino)methyl)phenyl)-1H-pyrazolo[4,3-d]pyrimidin-3-yl)-2-morpholinonicotinonitrile] in this work.
A Ki of no more than 100 nM was found for `COc1cccc(F)c1-c1ncc2[nH]nc(-c3ccn(C)c(=O)c3)c2n1` [Example 49, 4-(5-(2-Fluoro-6-methoxyphenyl)-1H-pyrazolo[4,3-d]pyrimidin-3-yl)-1-methylpyridin-2(1H)-one] in this work.
A Ki of no more than 100 nM was found for `CNCc1cc(C)c(-c2ncc3[nH]nc(-c4cnn(-c5ccccc5C#N)c4)c3n2)c(F)c1` [Example 79, 2-(4-(5-(2-Fluoro-6-methyl-4-((methylamino)methyl)phenyl)-1H-pyrazolo[4,3-d]pyrimidin-3-yl)-1H-pyrazol-1-yl)benzonitrile] in this work.
A Ki of no more than 100 nM was found for `COc1ccncc1-c1ncc2[nH]nc(-c3ccc(N4CCN(C)CC4)nc3)c2n1` [Example 103, 5-(4-Methoxypyridin-3-yl)-3-(6-(4-methylpiperazin-1-yl)pyridin-3-yl)-1H-pyrazolo[4,3-d]pyrimidine] in this work.
A Ki of 100 to 500 nM was found for `COc1cccc(F)c1-c1ncc2[nH]nc(-c3ccccc3F)c2n1` [Example 13, 5-(2-Fluoro-6-methoxyphenyl)-3-(2-fluorophenyl)-1H-pyrazolo[4,3-d]pyrimidine] in this work.
A Ki of no more than 100 nM was found for `Cc1ccccc1-c1ncc2[nH]nc(-c3ccc(N4CCN(C)CC4)cc3)c2n1` [Example 2, 3-(4-(4-Methylpiperazin-1-yl)phenyl)-5-o-tolyl-1H-pyrazolo[4,3-d]pyrimidine] in this work.
A Ki of no more than 100 nM was found for `COc1cccc(F)c1-c1ncc2[nH]nc(-c3ccc(CN)cc3)c2n1` [Example 41, (4-(5-(2-Fluoro-6-methoxyphenyl)-1H-pyrazolo[4,3-d]pyrimidin-3-yl)phenyl)methanamine] in this work.
